This note sets out measurements from PubChem BioAssay (NCI).

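Protocol summary: plate cells (96-well), add compound at 5 concentrations, incubate 48 h, interpolate endpoints linearly. Here, GI50 denotes the concentration required for 50% inhibition of growth. TGI denotes the concentration required for complete inhibition of growth.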 Where a SMILES comes first, the peptide text is derived from it. [ ]: non-standard residue; d: D form. The star is where a group is joined. NMeAc5c = CNC1(C(=O)O)CCCC1; Boc = CC(C)(C)OC(=O)*; OBn = c1ccc(CO*)cc1

Some test systems named below: EKVX NSCLC; HCT-15 colon; OVCAR-3 ovarian; SF-295 CNS; RPMI-8226 leukemia; NCI-H226 lung; A549 NSCLC; SK-MEL-2 melanoma; TK-10 renal; A498 renal.
What all share (assay): growth of human tumour cells (NCI), 48 h

With `O=C1c2ccccc2-c2c1c1ccccc1c(=O)n2CCNCCNCCNCCn1c2c(c3ccccc3c1=O)C(=O)c1ccccc1-2`, the GI50 in the assay on EKVX NSCLC is 1.28 µM; in the assay with HCT-15 colon, 0.579 µM; in the assay on OVCAR-3 ovarian, 1.16 µM; in the assay with SF-295 CNS, 1.4 µM; in the assay with RPMI-8226 leukemia, 0.0499 µM. The TGI was determined as 2.81 µM with EKVX NSCLC, 2.11 µM in the assay with HCT-15 colon, 4.91 µM in the assay with OVCAR-3 ovarian and 7.58 µM in the assay with SF-295 CNS.
`NC(=O)NCCCC(NC(=O)OCCCCn1ccc(=O)[nH]c1=O)C(=O)O` (stereo not given): the TGI in the assay with NCI-H226 lung, in the assay on EKVX NSCLC, in the assay with HCT-15 colon, with OVCAR-3 ovarian, with A549 NSCLC and in the assay on SF-295 CNS was more than 100 µM throughout. In addition, the TGI in the assay on RPMI-8226 leukemia, with SK-MEL-2 melanoma and in the assay on TK-10 renal was more than 100 µM in each case.
Turning to `COC(=O)c1c(C)cccc1C1CN=NC12Cc1ccc(C)cc1C2=O` (stereo not given), the TGI with NCI-H226 lung, in the assay on EKVX NSCLC, with HCT-15 colon, with OVCAR-3 ovarian, in the assay on A549 NSCLC and in the assay on SF-295 CNS was more than 100 µM each time. Moreover, the TGI with RPMI-8226 leukemia, with A498 renal and in the assay on TK-10 renal was more than 100 µM throughout.
For `O=c1c2cc([N+](=O)[O-])cnc2sn1-c1ccc([N+](=O)[O-])cc1`, the TGI in the assay with NCI-H226 lung was more than 100 µM; with EKVX NSCLC it was more than 100 µM; in the assay on HCT-15 colon, 87.5 µM; in the assay on OVCAR-3 ovarian, more than 100 µM; with A549 NSCLC it was more than 100 µM; with SF-295 CNS it was more than 100 µM. Further, the TGI in the assay on RPMI-8226 leukemia is 81.2 µM; in the assay on SK-MEL-2 melanoma it was 88.1 µM; with TK-10 renal, more than 100 µM.
In the case of `COC(=O)c1cc(=O)nc2sc3cccc(C)c3n12`, the TGI with NCI-H226 lung was more than 100 µM; with EKVX NSCLC, more than 100 µM; with HCT-15 colon, more than 100 µM; in the assay with OVCAR-3 ovarian, 82.8 µM; in the assay with A549 NSCLC, more than 100 µM; with SF-295 CNS, more than 100 µM. Besides, the TGI in the assay on RPMI-8226 leukemia is 67.9 µM; with SK-MEL-2 melanoma, 82.5 µM; in the assay on TK-10 renal, more than 100 µM.
On to `Nn1c(-c2ccccc2)nn(C(=O)c2ccccc2)c1=O`, for which the TGI with NCI-H226 lung, with EKVX NSCLC, in the assay on HCT-15 colon, in the assay with OVCAR-3 ovarian, with A549 NSCLC and in the assay with SF-295 CNS was more than 100 µM in each case. Moreover, the TGI in the assay with RPMI-8226 leukemia, with A498 renal and in the assay with TK-10 renal was more than 100 µM in each case.
Take `CC(C)=CCc1c2c(c3occ(-c4ccc(O)cc4)c(=O)c3c1O)CC(C(C)(C)O)O2` (stereo not given): the TGI in the assay with NCI-H226 lung came out at 43 µM; in the assay with HCT-15 colon, 30 µM; with OVCAR-3 ovarian it was 27.9 µM; in the assay with A549 NSCLC, 27.8 µM; in the assay with SF-295 CNS, 25 µM; in the assay with RPMI-8226 leukemia it was 29.9 µM. The TGI was determined as 28.1 µM in the assay on SK-MEL-2 melanoma, 29.6 µM in the assay on A498 renal and 30.1 µM in the assay with TK-10 renal.
Consider `Cc1ccc(-c2n[nH]c(=O)n2N2C(=O)c3ccccc3C2=O)cc1`, for which the TGI in the assay on NCI-H226 lung, in the assay on HCT-15 colon, with OVCAR-3 ovarian, with A549 NSCLC, with SF-295 CNS and with RPMI-8226 leukemia was more than 100 µM in each case. The TGI in the assay with SK-MEL-2 melanoma and in the assay with TK-10 renal was more than 100 µM in each case.
For `CCOC(=O)CSc1c(C(=O)OCC)c(=O)n(-c2ccccc2)c(=S)n1-c1ccccc1`, the TGI with NCI-H226 lung, with EKVX NSCLC, in the assay with HCT-15 colon, with OVCAR-3 ovarian, with A549 NSCLC and in the assay with SF-295 CNS was more than 100 µM in each case. The TGI in the assay with RPMI-8226 leukemia, in the assay on SK-MEL-2 melanoma and in the assay with TK-10 renal was more than 100 µM throughout.
In the case of `CN(C(=O)C(Cc1ccccc1)NC(=O)OC(C)(C)C)C1(C(=O)NC(Cc2ccccc2)C(=O)OCc2ccccc2)CCCC1` (stereo not drawn) (Boc-Phe-[NMeAc5c]-Phe-OBn; configuration not given here), the TGI with NCI-H226 lung, in the assay with EKVX NSCLC, in the assay on HCT-15 colon, in the assay on OVCAR-3 ovarian, in the assay with A549 NSCLC and with SF-295 CNS was more than 100 µM each time. Also, the TGI is 57.2 µM with RPMI-8226 leukemia, more than 100 µM in the assay on SK-MEL-2 melanoma and more than 100 µM in the assay with TK-10 renal.
Regarding `O=c1ccc(-c2ccccc2)n[nH]1`, the TGI in the assay with EKVX NSCLC, in the assay with HCT-15 colon, in the assay on OVCAR-3 ovarian, with A549 NSCLC, in the assay with SF-295 CNS and in the assay on SK-MEL-2 melanoma was more than 100 µM throughout. Also, the TGI in the assay with A498 renal and in the assay with TK-10 renal was more than 100 µM throughout.
As to `COc1cc2c(c(OC)c1OC)C(=O)[C@@H]1[C@H]2N1C(N)=O`, the TGI with NCI-H226 lung, in the assay on EKVX NSCLC, in the assay on HCT-15 colon, with OVCAR-3 ovarian, in the assay on A549 NSCLC and in the assay on SF-295 CNS was more than 100 µM each time. The TGI in the assay on RPMI-8226 leukemia and with TK-10 renal was more than 100 µM each time.
On to `ClCCN1CCC2(CC1)SSC1(CCN(CCCl)CC1)S2`, for which the TGI with HCT-15 colon was more than 100 µM; in the assay with OVCAR-3 ovarian, 63.3 µM; in the assay with A549 NSCLC, more than 100 µM; in the assay with SF-295 CNS it was 92.5 µM; in the assay with RPMI-8226 leukemia, 57.1 µM; in the assay with SK-MEL-2 melanoma, more than 100 µM. Further, the figures for the TGI with A498 renal and with TK-10 renal were more than 100 µM and 95.5 µM, respectively.
With `COc1ccc(C2CC(c3c(O)ccc4ccccc34)=NN2C(C)=O)cc1OC` (stereo not given), the TGI in the assay on NCI-H226 lung was more than 100 µM; with HCT-15 colon, more than 100 µM; in the assay on OVCAR-3 ovarian, 69.6 µM; in the assay with A549 NSCLC, more than 100 µM; in the assay on SF-295 CNS, more than 100 µM; in the assay on RPMI-8226 leukemia, 54.4 µM. Moreover, the figures for the TGI with SK-MEL-2 melanoma, in the assay with A498 renal and in the assay on TK-10 renal were 52.1 µM, 63.4 µM and more than 100 µM, respectively.
On to `COCO[C@@H]1C[C@H]2C(=O)Nc3ccccc3C(=O)N2C1`, for which the TGI with NCI-H226 lung, in the assay with EKVX NSCLC, in the assay with HCT-15 colon, in the assay on A549 NSCLC, in the assay with SF-295 CNS and in the assay with SK-MEL-2 melanoma was more than 100 µM each time. In addition, the TGI with A498 renal and in the assay with TK-10 renal was more than 100 µM in each case.
